The record followed here is ChEMBL document CHEMBL4765473, “PF-07059013: A Noncovalent Modulator of Hemoglobin for Treatment of Sickle Cell Disease” (J Med Chem, 2021).

A short description of data set [1]: Drug metabolism in human hepatocytes assessed formation of acyl migration products. It is filed as ADME, cell-based, Hepatocyte.
Data set [2] in a line: Half life in human hepatocytes by NMR analysis. It is filed as ADME, cell-based, Hepatocyte.
Data set [3] can be described thus: Binding affinity to purified human cross-linked HbS by SPR analysis. For orientation: In SPR one partner is held on a chip, and binding of the other changes the refractive index at the surface.
Data set [4] can be described thus: Modulation of HbS (unknown origin) assessed as stabilization of the oxy-state of hemoglobin by measuring conversion from oxyHb (R) to deoxyHb (T) pre-incubated for 1 hr and measured after 120 mins by oxygen dissociation assay. Also noted: species or system Homo sapiens.
The nature of data set [5]: Apparent permeability in MDCK cells. The settings on record: dog. The data set is classed as ADME, cell-based, Canis lupus familiaris.
Data set [6] can be described thus: Intrinsic clearance in human hepatocytes assessed per million cells. It is filed as ADME, cell-based, Hepatocyte. The settings on record: read-out: CLH.
Data set [7] deals with T1, Voltage-gated inwardly rectifying potassium channel KCNH2 (Homo sapiens, UniProt Q12809). As to the kind of experiment: Binding affinity to human ERG by dofetilide fluorescence polarization binding assay.
T1 sequence (Q12809 whole entry): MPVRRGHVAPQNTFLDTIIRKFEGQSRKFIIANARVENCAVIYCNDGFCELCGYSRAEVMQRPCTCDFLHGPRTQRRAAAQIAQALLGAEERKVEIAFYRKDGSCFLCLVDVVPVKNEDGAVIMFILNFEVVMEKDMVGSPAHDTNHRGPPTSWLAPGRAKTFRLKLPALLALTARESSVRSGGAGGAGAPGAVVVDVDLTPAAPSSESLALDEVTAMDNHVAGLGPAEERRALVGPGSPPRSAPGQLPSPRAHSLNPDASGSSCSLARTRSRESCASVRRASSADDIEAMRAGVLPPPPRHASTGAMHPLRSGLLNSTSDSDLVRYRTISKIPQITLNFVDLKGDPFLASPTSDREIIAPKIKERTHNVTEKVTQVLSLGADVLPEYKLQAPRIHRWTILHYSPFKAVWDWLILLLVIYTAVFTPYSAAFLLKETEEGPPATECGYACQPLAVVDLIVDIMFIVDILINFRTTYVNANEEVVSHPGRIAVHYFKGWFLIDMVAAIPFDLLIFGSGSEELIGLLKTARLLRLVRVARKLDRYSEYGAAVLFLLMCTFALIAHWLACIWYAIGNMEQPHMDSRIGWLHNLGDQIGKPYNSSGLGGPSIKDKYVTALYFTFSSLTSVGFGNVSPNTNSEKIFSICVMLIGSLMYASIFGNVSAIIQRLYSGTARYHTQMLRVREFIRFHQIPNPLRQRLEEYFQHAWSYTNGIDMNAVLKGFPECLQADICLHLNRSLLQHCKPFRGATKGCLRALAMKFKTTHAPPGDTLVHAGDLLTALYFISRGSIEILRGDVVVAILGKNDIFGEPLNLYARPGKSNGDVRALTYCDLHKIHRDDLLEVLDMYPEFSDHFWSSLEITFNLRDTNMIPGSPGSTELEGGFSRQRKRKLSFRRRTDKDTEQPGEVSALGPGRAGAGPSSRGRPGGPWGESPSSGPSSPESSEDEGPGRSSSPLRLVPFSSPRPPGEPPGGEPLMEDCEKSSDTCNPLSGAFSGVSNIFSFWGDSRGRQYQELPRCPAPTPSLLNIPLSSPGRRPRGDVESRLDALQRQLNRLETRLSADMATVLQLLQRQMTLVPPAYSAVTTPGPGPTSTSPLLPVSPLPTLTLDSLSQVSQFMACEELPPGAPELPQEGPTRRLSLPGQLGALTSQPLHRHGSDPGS
Data set [8] in a line: Distribution coefficient, log D of the compound by shake flask method. The settings on record: octanol/water. The data set is classed as physicochemical.
Data set [9] can be described thus: Protein binding in human blood. It is filed as ADME, tissue-based.
For the next data set, the system named is Mus musculus. The experiment in a line: Binding to HbS in sickle Townes mouse at 30 to 900 mg/kg, po dosed via gavage measured after 0.5 to 24 hrs by Hemox-analyzer based assay. It is filed as functional, organism-based. The settings on record: dose 30-900 mg/kg, time 0.5-24 hrs.
The nature of data set [10]: Drug metabolism in human hepatocytes assessed formation of glucuronide metabolites. The data set is classed as ADME, cell-based, Hepatocyte.
The nature of data set [11]: Drug metabolism in human hepatocytes assessed formation of acyl glucuronides metabolites. It is filed as ADME, cell-based, Hepatocyte.
Data set [12] is described as follows: Apparent permeability from apical to basolateral side in MDCK-MDR1 cells. The data set is classed as ADME, cell-based, Canis lupus familiaris. The settings on record: dog.
Data set [13] is described as follows: Apparent permeability from basolateral to apical side in MDCK-MDR1 cells. It is filed as ADME, cell-based, Canis lupus familiaris. The settings on record: dog.
The next data set deals with T2, Cytochrome P450 1A2 (Homo sapiens, UniProt P05177).
T2 sequence (P05177 whole entry): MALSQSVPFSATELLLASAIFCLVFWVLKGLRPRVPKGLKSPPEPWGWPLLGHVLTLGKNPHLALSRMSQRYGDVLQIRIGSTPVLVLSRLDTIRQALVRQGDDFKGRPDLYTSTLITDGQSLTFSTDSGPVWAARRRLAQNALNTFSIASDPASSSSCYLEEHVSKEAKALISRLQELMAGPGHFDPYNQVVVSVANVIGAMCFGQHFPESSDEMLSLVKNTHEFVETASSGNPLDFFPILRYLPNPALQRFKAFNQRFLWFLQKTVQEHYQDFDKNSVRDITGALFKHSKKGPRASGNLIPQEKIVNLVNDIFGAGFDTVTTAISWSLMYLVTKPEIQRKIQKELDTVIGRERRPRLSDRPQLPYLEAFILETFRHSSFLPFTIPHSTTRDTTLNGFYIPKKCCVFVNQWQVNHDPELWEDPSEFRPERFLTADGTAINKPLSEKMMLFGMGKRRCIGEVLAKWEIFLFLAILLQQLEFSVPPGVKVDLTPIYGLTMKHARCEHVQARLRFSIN
As to the kind of experiment: Inhibition of CYP1A2 (unknown origin). It is filed as ADME.

For a further data set, the target named is T3, Cytochrome P450 2C8 (Homo sapiens, UniProt P10632).
T3 sequence (P10632 whole entry): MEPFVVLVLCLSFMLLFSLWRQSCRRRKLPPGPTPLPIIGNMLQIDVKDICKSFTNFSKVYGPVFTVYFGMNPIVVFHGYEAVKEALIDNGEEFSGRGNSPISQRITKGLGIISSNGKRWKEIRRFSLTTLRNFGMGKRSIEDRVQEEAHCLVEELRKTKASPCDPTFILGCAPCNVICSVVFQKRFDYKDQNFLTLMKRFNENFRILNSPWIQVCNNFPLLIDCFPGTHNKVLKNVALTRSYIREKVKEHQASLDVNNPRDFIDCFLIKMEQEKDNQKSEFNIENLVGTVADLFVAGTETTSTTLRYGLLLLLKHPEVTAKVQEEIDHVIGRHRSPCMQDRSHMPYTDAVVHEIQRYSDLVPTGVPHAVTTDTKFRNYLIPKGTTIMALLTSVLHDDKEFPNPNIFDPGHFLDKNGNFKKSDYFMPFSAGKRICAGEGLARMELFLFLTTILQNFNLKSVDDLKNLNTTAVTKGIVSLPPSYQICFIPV
The experiment in a line: Inhibition of CYP2C8 (unknown origin). It is filed as ADME.

The next data set addresses Cytochrome P450 2C9 (Homo sapiens, UniProt P11712). The experiment in a line: Inhibition of CYP2C9 (unknown origin). The data set is classed as ADME.
For another data set, the target named is Cytochrome P450 2D6 (Homo sapiens, UniProt P10635). As to the kind of experiment: Inhibition of CYP2D6 (unknown origin). It is filed as ADME.
Chain of Cytochrome P450 2D6 (P10635 whole entry): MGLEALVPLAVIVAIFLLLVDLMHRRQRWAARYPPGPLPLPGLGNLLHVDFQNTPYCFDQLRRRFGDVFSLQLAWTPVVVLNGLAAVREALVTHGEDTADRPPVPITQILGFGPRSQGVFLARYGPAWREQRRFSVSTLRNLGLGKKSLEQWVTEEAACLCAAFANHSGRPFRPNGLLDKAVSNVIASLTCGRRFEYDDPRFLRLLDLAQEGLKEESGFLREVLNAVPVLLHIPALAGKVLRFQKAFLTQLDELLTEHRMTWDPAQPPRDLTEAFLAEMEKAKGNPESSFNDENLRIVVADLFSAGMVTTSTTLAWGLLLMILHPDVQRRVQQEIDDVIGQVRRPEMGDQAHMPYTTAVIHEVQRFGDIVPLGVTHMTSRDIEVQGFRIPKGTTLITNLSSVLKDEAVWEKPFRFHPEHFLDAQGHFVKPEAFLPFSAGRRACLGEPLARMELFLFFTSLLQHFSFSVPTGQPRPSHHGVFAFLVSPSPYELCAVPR
A further data set addresses Cytochrome P450 3A4 (Homo sapiens, UniProt P08684). As to the kind of experiment: Inhibition of CYP3A4 (unknown origin). The data set is classed as ADME.
Data set [14] can be described thus: Unbound fraction in human plasma. It is filed as ADME, cell-free.
Data set [15] is described as follows: Protein binding in human RBC assessed as unbound fraction at 1 mM. The data set is classed as ADME, tissue-based, Erythrocyte. The settings on record: red blood cells (RBC).
Data set [16] concerns the target T1, Voltage-gated inwardly rectifying potassium channel KCNH2. As to the kind of experiment: Inhibition of human ERG by patch clamp assay. A general note: Patch clamp records ionic current or voltage across a cell membrane.

Bounds are passed on as bounds.

Chain of Cytochrome P450 2C9 (P11712 whole entry): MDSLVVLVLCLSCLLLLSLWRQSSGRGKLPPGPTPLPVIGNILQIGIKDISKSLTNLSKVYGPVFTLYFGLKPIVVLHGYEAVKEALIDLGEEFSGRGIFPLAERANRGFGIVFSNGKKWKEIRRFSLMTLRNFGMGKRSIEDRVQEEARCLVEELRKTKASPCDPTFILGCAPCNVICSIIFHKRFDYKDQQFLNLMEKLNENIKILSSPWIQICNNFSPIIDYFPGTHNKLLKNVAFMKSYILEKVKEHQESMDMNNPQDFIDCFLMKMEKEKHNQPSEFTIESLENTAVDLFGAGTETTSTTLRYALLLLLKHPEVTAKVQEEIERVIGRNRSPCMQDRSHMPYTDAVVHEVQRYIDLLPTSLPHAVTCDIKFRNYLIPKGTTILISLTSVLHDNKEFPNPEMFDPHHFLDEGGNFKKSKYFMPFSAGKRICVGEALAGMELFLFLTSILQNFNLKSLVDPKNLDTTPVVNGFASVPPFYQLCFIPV
Chain of Cytochrome P450 3A4 (P08684 whole entry): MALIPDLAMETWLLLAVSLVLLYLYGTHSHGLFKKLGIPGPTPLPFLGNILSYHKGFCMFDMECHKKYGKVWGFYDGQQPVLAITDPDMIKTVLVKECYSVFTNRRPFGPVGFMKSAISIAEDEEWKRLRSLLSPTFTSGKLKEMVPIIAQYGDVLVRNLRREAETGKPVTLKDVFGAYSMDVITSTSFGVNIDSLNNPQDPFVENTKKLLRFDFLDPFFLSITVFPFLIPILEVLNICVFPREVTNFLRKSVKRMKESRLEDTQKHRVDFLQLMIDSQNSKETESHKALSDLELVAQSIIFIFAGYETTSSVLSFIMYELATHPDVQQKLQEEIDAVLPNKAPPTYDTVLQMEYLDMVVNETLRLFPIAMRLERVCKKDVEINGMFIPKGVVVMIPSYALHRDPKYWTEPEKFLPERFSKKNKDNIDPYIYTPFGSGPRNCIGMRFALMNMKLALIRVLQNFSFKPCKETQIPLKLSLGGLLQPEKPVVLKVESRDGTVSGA

For the compound `C=CCOC(=O)[C@H]1O[C@@H](OC(=O)c2ccc(-n3cccn3)c([C@H](C)Oc3cc4cc(F)cc(F)c4nc3N)c2)[C@H](O)[C@@H](O)[C@@H]1O`, the Drug metabolism entry in [1] is reported as “Metabolite_Detected”. Also, the half-life in data set [2] was 2.18 h.

With `C[C@H](Oc1cc2cc(F)cc(F)c2nc1N)c1cc(C(=O)O)ccc1-n1cccn1`, binding in [3] was put at a Kd of 0.037 µM. Moreover, the IC50 is 4.6 µM in data set [4]; over 30 µM against Cytochrome P450 1A2; 17.3 µM at Cytochrome P450 2C8; 20.6 µM on Cytochrome P450 2C9; over 30 µM against Cytochrome P450 2D6; over 30 µM against Cytochrome P450 3A4. The compound further gave an IC50 in data set [16] of 144 µM. Further, the Papp in data set [5] is 3 ×10⁻⁶ cm/s. For the same compound, in data set [6], the hepatocyte CLint is under 3 µL/min/1e6 cells. In data set [7], this compound came in with a Ki of 40 µM. Further, the logD in [8] came to 1. The PB result in data set [9] was “Dose-dependent effect”. The PPB result with Mus musculus was “Dose-dependent effect”. Besides, the Drug metabolism entry in data set [10] and in data set [11] was “Metabolite_Detected” in each case. The Papp A→B in data set [12] is 0.4 ×10⁻⁶ cm/s. Also, in data set [13], the Papp B→A stood at 4 ×10⁻⁶ cm/s. In data set [14], the fraction unbound was 0.027. Further, the fraction unbound at 1000 µM in data set [15] worked out at 0.000577.

One may read the half-life as the time needed for the level to fall by half in the phase considered. High values mean slow loss, low ones fast loss. By Kd is commonly meant the concentration at which binding is half-saturated. Low values mean higher affinity, high ones lower affinity. Broadly, the IC50 is the midpoint of a concentration-inhibition curve. By Papp is commonly meant a coefficient for how fast a substance crosses the barrier. As a reminder, the Ki is a measure of affinity in units of concentration, obtained from inhibition or displacement. For orientation: logD means lipophilicity at a set pH, counting ionised and neutral species. Higher therefore signals higher lipophilicity. As a reminder, the Papp A→B is how fast a substance crosses the layer from the apical side. One may read the Papp B→A as how fast a substance crosses the layer from the basolateral side. As a reminder, the fraction unbound is the share of the substance not bound to proteins or other matrix.
